Where a SMILES comes first, the peptide text is derived from it. Bridges are numbered along the chain shown (N, C = ends). [ ]: non-standard residue; d: D form. The star is where a group is joined. Phe(3,4-Cl2) = N[C@@H](Cc1ccc(Cl)c(Cl)c1)C(=O)O; Phe(4-COOH) = N[C@@H](Cc1ccc(C(=O)O)cc1)C(=O)O; Bip = N[C@@H](Cc1ccc(-c2ccccc2)cc1)C(=O)O; Phe(3-CN) = N#Cc1cccc(C[C@H](N)C(=O)O)c1; Phe(3-Me) = Cc1cccc(C[C@H](N)C(=O)O)c1; Val(3-OH) = CC(C)(O)[C@H](N)C(=O)O; Benzoyl(4-F) = O=C(c1ccc(F)cc1)*; hPhe = N[C@@H](CCc1ccccc1)C(=O)O; 4Pal = N[C@@H](Cc1ccncc1)C(=O)O; Cha = N[C@@H](CC1CCCCC1)C(=O)O; Cit = NC(=O)NCCC[C@H](N)C(=O)O; dCha = N[C@H](CC1CCCCC1)C(=O)O; Carboxymethyl = O=C(O)C*; Orn = NCCC[C@H](N)C(=O)O; Dab = NCC[C@H](N)C(=O)O; Dap = NC[C@H](N)C(=O)O
Target: T1, human PD-1 / PD-L1-Ig binding on Jurkat cell line over-expressing human PD-1 (Jurkat-PD-1) (Homo sapiens, UniProt Q15116)
T1 construct: expressed in transfected cells; host or cells: Jurkat
T1 sequence (Q15116 25-288): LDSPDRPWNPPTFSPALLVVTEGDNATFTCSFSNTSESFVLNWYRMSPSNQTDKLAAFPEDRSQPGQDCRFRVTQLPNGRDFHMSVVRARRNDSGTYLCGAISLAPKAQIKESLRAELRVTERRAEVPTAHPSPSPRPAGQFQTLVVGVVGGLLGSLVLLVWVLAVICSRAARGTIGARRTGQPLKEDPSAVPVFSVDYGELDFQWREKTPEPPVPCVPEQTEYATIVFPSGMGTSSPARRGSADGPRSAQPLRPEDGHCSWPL
Assay: Jurkat-PD-1 Cell Binding High-Content Screening Assay (CBA)
Assay type: cell-based
Conditions: Jurkat HPD1_PDL1 IC50, Jurkat-PD-1 cells, PE-labeled PD-L1-Ig 20 nM final
Outline: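 Compounds were preincubated with Jurkat-hPD-1 cells in DMEM plus 10% fetal calf serum for 2 h at 37° C. Phycoerythrin-labeled PD-L1-Ig (20 nM final) was then added for 1 hour. Cells were fixed in 4% paraformaldehyde with Hoechst 33342, and bound fluorescence was quantified by high-content imaging.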

Compound | IC50 [nM]
CC[C@H](C)[C@@H]1NC(=O)[C@H](Cc2ccc(-c3ccccc3)cc2)NC(=O)[C@H](C(C)C)NC(=O)[C@H](Cc2cccc(C)c2)NC(=O)[C@H](CC(=O)O)NC(=O)[C@H](Cc2ccc(OCC(=O)O)cc2)NC(=O)[C@H](Cc2ccncc2)NC(=O)CSC[C@@H](C(=O)N[C@@H](C)C(N)=O)NC(=O)[C@H]([C@@H](C)O)NC(=O)[C@H](C(C)C)NC(=O)[C@H](CC(C)C)NC(=O)[C@H](CCN)NC(=O)[C@@H](CC(C)C)NC(=O)[C@H](CCCN)NC1=O [Compound 1186] | 5.8

Same assay, conditions: Jurkat-PD-1 cells, PE-labeled PD-L1-Ig 20 nM final; read-out: Jurkat HPD1_PDL1 IC50

IC50 [nM] | Compound
16.9 | CC(C)C[C@H]1NC(=O)[C@H](CCCN)NC(=O)[C@H](C(C)C)NC(=O)[C@H](Cc2ccc(-c3ccccc3)cc2)NC(=O)[C@H](C(C)C)NC(=O)[C@H](Cc2cccc(C(F)(F)F)c2)NC(=O)[C@H](CC(=O)O)NC(=O)[C@H](Cc2ccc(C(=O)O)cc2)NC(=O)[C@H](Cc2ccc(OCC(=O)O)cc2)NC(=O)CSC[C@@H](C(=O)N[C@@H](C)C(N)=O)NC(=O)[C@H]([C@@H](C)O)NC(=O)[C@H](C(C)C)NC(=O)[C@H](CC2CCCCC2)NC(=O)[C@H](CCN)NC1=O [Compound 1571]
39.4 | Cc1cccc(C[C@@H]2NC(=O)[C@H](CC(=O)O)NC(=O)[C@H](Cc3ccc(OCC(=O)O)cc3)NC(=O)[C@H](CCCNC(=N)N)NC(=O)CSC[C@@H](C(N)=O)NC(=O)[C@H](CCCNC(=O)c3ccc(F)cc3)NC(=O)[C@H](C(C)C)NC(=O)[C@H](CC3CCCCC3)NC(=O)[C@H](CCN)NC(=O)[C@@H](CC(C)C)NC(=O)[C@H](CCCN)NC(=O)[C@H](Cc3ccc(OCC(=O)O)cc3)NC(=O)[C@H](Cc3ccc(-c4ccccc4)cc3)NC(=O)[C@H](Cc3ccc(O)cc3)NC2=O)c1 [Compound 2053] ({CH2CO}-RY(Carboxymethyl)D[Phe(3-Me)]Y[Bip]Y(Carboxymethyl)[Orn][dL][Dab][Cha]V[Orn](Benzoyl(4-F))C-NH2; thioether N-14)
7.1 | Cc1cccc(C[C@@H]2NC(=O)[C@H](CC(=O)O)NC(=O)[C@H](Cc3ccc(C(=O)O)cc3)NC(=O)[C@H](Cc3ccncc3)NC(=O)CSC[C@@H](C(=O)N[C@@H](CCN)C(N)=O)NC(=O)[C@H]([C@@H](C)O)NC(=O)[C@H](C(C)C)NC(=O)[C@H](CC3CCCCC3)NC(=O)[C@H](CCN)NC(=O)[C@@H](CC(C)C)NC(=O)[C@H](CCCN)NC(=O)[C@H](Cc3ccc(OCC(=O)O)cc3)NC(=O)[C@H](Cc3ccc(-c4ccccc4)cc3)NC(=O)[C@H](Cc3ccc(OCC(=O)O)cc3)NC2=O)c1 [Compound 2306] ({CH2CO}-[4Pal][Phe(4-COOH)]D[Phe(3-Me)]Y(Carboxymethyl)[Bip]Y(Carboxymethyl)[Orn][dL][Dab][Cha]VTC[Dab]-NH2; thioether N-14)
8.2 | Cc1cccc(C[C@@H]2NC(=O)[C@H](CC(=O)O)NC(=O)[C@H](Cc3ccc(OCC(=O)O)cc3)NC(=O)[C@H](Cc3ccncc3)NC(=O)CSC[C@@H](C(=O)N[C@@H](CCN)C(N)=O)NC(=O)[C@H](CCC(N)=O)NC(=O)[C@H](C(C)(C)O)NC(=O)[C@H](CC3CCCCC3)NC(=O)[C@H](CCN)NC(=O)[C@@H](CC(C)C)NC(=O)[C@H](CCCN)NC(=O)[C@H](Cc3ccc(OCC(=O)O)cc3)NC(=O)[C@H](Cc3ccc(-c4ccccc4)cc3)NC(=O)[C@H](Cc3ccc(OCC(=O)O)cc3)NC2=O)c1 [Compound 2068] ({CH2CO}-[4Pal]Y(Carboxymethyl)D[Phe(3-Me)]Y(Carboxymethyl)[Bip]Y(Carboxymethyl)[Orn][dL][Dab][Cha][Val(3-OH)]QC[Dab]-NH2; thioether N-14)
111 | Cc1cccc(C[C@@H]2NC(=O)[C@H](CC(=O)O)NC(=O)[C@H](Cc3ccc(C(=O)O)cc3)NC(=O)[C@H](CCc3ccccc3)NC(=O)CSC[C@@H](C(=O)N[C@@H](CCN)C(N)=O)NC(=O)[C@H](CO)NC(=O)[C@H](C(C)(C)O)NC(=O)[C@H](CC3CCCCC3)NC(=O)[C@H](CCN)NC(=O)[C@@H](CC(C)C)NC(=O)[C@H](CCCN)NC(=O)[C@H](Cc3ccc(OCC(=O)O)cc3)NC(=O)[C@H](Cc3ccc(-c4ccccc4)cc3)NC(=O)[C@H](Cc3ccc(OCC(=O)O)cc3)NC2=O)c1 [Compound 2081] ({CH2CO}-[hPhe][Phe(4-COOH)]D[Phe(3-Me)]Y(Carboxymethyl)[Bip]Y(Carboxymethyl)[Orn][dL][Dab][Cha][Val(3-OH)]SC[Dab]-NH2; thioether N-14)

Further lines, the compound ahead of its results:

Compound | IC50 [nM]
CC(C)C[C@H]1NC(=O)[C@H](CCCN)NC(=O)[C@H](CCC(=O)O)NC(=O)[C@H](Cc2ccc(-c3ccccc3)cc2)NC(=O)[C@H](C(C)C)NC(=O)[C@H](Cc2c[nH]c3ccccc23)NC(=O)[C@H](CC(=O)O)NC(=O)[C@H](Cc2ccc(OCC(=O)O)cc2)NC(=O)[C@H](CN)NC(=O)CSC[C@@H](C(=O)N[C@@H](C)C(N)=O)NC(=O)[C@H]([C@@H](C)O)NC(=O)[C@H](C(C)C)NC(=O)[C@H](Cc2cccc(C#N)c2)NC(=O)[C@H](CCN)NC1=O [Compound 1507] ({CH2CO}-[Dap]Y(Carboxymethyl)DWV[Bip]E[Orn][dL][Dab][Phe(3-CN)]VTCA-NH2; thioether N-14) | 154
Cc1cccc(C[C@@H]2NC(=O)[C@H](CC(=O)O)NC(=O)[C@H](Cc3ccc(O)cc3)NC(=O)[C@H](CC(N)=O)NC(=O)CSC[C@@H](C(=O)N[C@@H](C)C(N)=O)NC(=O)[C@H]([C@@H](C)O)NC(=O)[C@H](C(C)C)NC(=O)[C@H](CC3CCCCC3)NC(=O)[C@H](CCN)NC(=O)[C@@H](CC(C)C)NC(=O)[C@H](CCCN)NC(=O)[C@H](CCCNC(N)=O)NC(=O)[C@H](Cc3ccc(-c4ccccc4)cc3)NC(=O)[C@H](CC(C)C)NC2=O)c1 [Compound 1306] ({CH2CO}-NYD[Phe(3-Me)]L[Bip][Cit][Orn][dL][Dab][Cha]VTCA-NH2; thioether N-14) | 14.6
CC[C@H](C)[C@@H]1NC(=O)[C@H](Cc2ccc(-c3ccccc3)cc2)NC(=O)[C@H](C(C)C)NC(=O)[C@H](Cc2c[nH]c3ccccc23)NC(=O)[C@H](CC(=O)O)NC(=O)[C@H](Cc2ccc(O)cc2)NC(=O)[C@H](CC(N)=O)NC(=O)CSC[C@@H](C(=O)N[C@@H](C)C(N)=O)NC(=O)[C@H]([C@@H](C)O)NC(=O)[C@H](C(C)C)NC(=O)[C@H](CC(C)C)NC(=O)[C@H](CCN)NC(=O)[C@@H](CC(C)C)NC(=O)[C@H](CCCN)NC1=O [Compound 1038] ({CH2CO}-NYDWV[Bip]I[Orn][dL][Dab]LVTCA-NH2; thioether N-14) | 7
CC(C)C[C@@H]1NC(=O)[C@H](CCN)NC(=O)[C@@H](CC(C)C)NC(=O)[C@H](CCCCN)NC(=O)[C@H](CCCNC(N)=O)NC(=O)[C@H](Cc2ccc(-c3ccccc3)cc2)NC(=O)[C@H](C(C)C)NC(=O)[C@H](Cc2c[nH]c3ccccc23)NC(=O)[C@H](CC(=O)O)NC(=O)[C@H](Cc2ccc(O)cc2)NC(=O)[C@H](CC(N)=O)NC(=O)CSC[C@@H](C(=O)NCC(N)=O)NC(=O)[C@H](CO)NC(=O)[C@H](C(C)C)NC1=O [Compound 1113] ({CH2CO}-NYDWV[Bip][Cit]K[dL][Dab]LVSCG-NH2; thioether N-14) | 15.6
CC(C)C[C@H]1NC(=O)[C@H](CCCN)NC(=O)[C@H](CCC(=O)O)NC(=O)[C@H](Cc2ccc(-c3ccccc3)cc2)NC(=O)[C@H](C(C)C)NC(=O)[C@H](Cc2c[nH]c3ccccc23)NC(=O)[C@H](CC(=O)O)NC(=O)[C@H](Cc2ccc(OCC(=O)O)cc2)NC(=O)[C@H](CN)NC(=O)CSC[C@@H](C(=O)N[C@@H](C)C(N)=O)NC(=O)[C@H]([C@@H](C)O)NC(=O)[C@H](C(C)C)NC(=O)[C@H](Cc2ccc(Cl)c(Cl)c2)NC(=O)[C@H](CCN)NC1=O [Compound 1481] ({CH2CO}-[Dap]Y(Carboxymethyl)DWV[Bip]E[Orn][dL][Dab][Phe(3,4-Cl2)]VTCA-NH2; thioether N-14) | 67.2
CCC(C)[C@@H]1NC(=O)[C@H](Cc2ccc(-c3ccccc3)cc2)NC(=O)[C@H](C(C)C)NC(=O)[C@H](Cc2ccc(F)c(C(F)(F)F)c2)NC(=O)[C@H](CC(=O)O)NC(=O)[C@H](Cc2ccc(OCC(=O)O)cc2)NC(=O)[C@H](CN)NC(=O)CSC[C@@H](C(=O)N[C@@H](C)C(N)=O)NC(=O)[C@H]([C@@H](C)O)NC(=O)[C@H](C(C)C)NC(=O)[C@H](CC2CCCCC2)NC(=O)[C@H](CCN)NC(=O)[C@@H](CC(C)C)NC(=O)[C@H](CCCN)NC1=O (some centres unmarked) [Compound 2245] | 45.5
CC(C)[C@@H]1NC(=O)[C@H](Cc2c[nH]c3ccccc23)NC(=O)[C@H](CC(=O)O)NC(=O)[C@H](Cc2ccc(C(=O)O)cc2)NC(=O)[C@H](Cc2ccc(OCC(=O)O)cc2)NC(=O)CSC[C@@H](C(=O)N[C@@H](C)C(N)=O)NC(=O)[C@H]([C@@H](C)O)NC(=O)[C@H](C(C)C)NC(=O)[C@H](CC2CCCCC2)NC(=O)[C@H](CCN)NC(=O)[C@@H](CC2CCCCC2)NC(=O)[C@H](CCCN)NC(=O)[C@H](CCC(=O)O)NC(=O)[C@H](Cc2ccc(-c3ccccc3)cc2)NC1=O [Compound 1444] ({CH2CO}-Y(Carboxymethyl)[Phe(4-COOH)]DWV[Bip]E[Orn][dCha][Dab][Cha]VTCA-NH2; thioether N-14) | 5.7
CC(C)C[C@H]1NC(=O)[C@H](CCCN)NC(=O)[C@H](C(C)C)NC(=O)[C@H](Cc2ccc(-c3ccccc3)cc2)NC(=O)[C@H](C(C)C)NC(=O)[C@H](Cc2c[nH]c3ccccc23)NC(=O)[C@H](CC(=O)O)NC(=O)[C@H](Cc2ccc(OCC(=O)O)cc2)NC(=O)[C@H](CN)NC(=O)CSC[C@@H](C(=O)N[C@@H](C)C(N)=O)NC(=O)[C@H]([C@@H](C)O)NC(=O)[C@H](C(C)C)NC(=O)[C@H](Cc2ccc(O)cc2)NC(=O)[C@H](CCN)NC1=O [Compound 1681] ({CH2CO}-[Dap]Y(Carboxymethyl)DWV[Bip]V[Orn][dL][Dab]YVTCA-NH2; thioether N-14) | 48.9

Reference: patent US20250163104A1, “MACROCYCLIC IMMUNOMODULATORS” (priority 2021, published 2025)
